Values after ≈ are worked out from the molar mass of the structure shown. Values joined by “and” are separate entries in the source; they are usually repeats but may differ in a detail not shown here. Identical values can stand only once. “Also recorded” adds a separate entry of the source. Like-named read-outs stand apart in the source and are kept apart here.

From paper PMC9814544 (Communications Chemistry, 2020) come the findings set out here.

A short description of data set [1]: AF dye fluorescence quenching assay. As to conditions: at 30 µM; n = 1. As for the experimental part: Employing filter criteria like < 65% control in the primary assay and a minimum difference of 30% to the SR-B1 counter screen, about 3300 compounds remained. These compounds were tested in concentration response using both assay formats (Supplementary Fig. 1). To qualify the identified compounds further we developed additional assays with the goal to identify compounds that merely quenched the AF dye fluorescence. In this assay, the fluorescence signal of human AF647- or AF594-labeled oxLDL was recorded in the presence and absence of compound. Only compounds without relevant quenching were subsequently selected for further analysis.
Furthermore, quenching assays were established to eliminate compounds showing quenching of the AF594 or AF647 dye fluorescence. For this, human oxLDL labeled with either AF594 or AF647 was incubated with compound and the fluorescence signal with and without compound was measured to determine the quenching of the fluorescence. For both compounds quenching of fluorescence has been tested with n = 1.

For data set [2], the target named is T1, LOX129 (LOX-1 129-273) (Homo sapiens, UniProt P78380).
T1 construct: 6His-tag with thrombin cleavage site (N, cleaved yes); made in house; host or cells: E. coli SHuffle cells (New England BioLabs), pET28a
The data set is described as follows: Isothermal titration calorimetry. It is filed as binding. As for the experimental part:
For additional biophysical profiling of the specific SPR binders, isothermal titration calorimetry (ITC) was used. Due to limited solubility of the compounds, an inverse setup was used by titrating LOX129 into compound solution. The mean Kd value of three independent measurements is 7 µM (Supplementary Table 4).
Isothermal titration calorimetry experiments were conducted on a MicroCal iTC200 instrument (Malvern) using LOX-1 that had been passed through a PD-10 desalting column (GE Healthcare) equilibrated with 20 mM Tris pH 7.3 and 150 mM NaCl. Complete saturation of 35 µM, respectively 40 µM LOX inhibitor was typically achieved by injecting 18× 2 µl aliquots of 300 µM LOX-1 at a temperature of 25 °C. As a control 300 µM LOX-1 was injected in buffer (n = 1, Supplementary Fig. 19).
The thermodynamic binding parameters were extracted by non-linear regression analysis of the binding isotherms (MicroCal PEAQ-ITC Analysis Software). A single-site binding model was applied yielding the binding enthalpy (ΔH), stoichiometry (n), entropy (ΔS) and association constant (Ka). The binding isotherm of protein in buffer control was not subtracted during data evaluation.
On the technique in general: ITC needs no label: the signal is the heat of the interaction.

Data set [3] has as its target T1, LOX129 (LOX-1 129-273). The experiment in a line: Surface plasmon resonance, immobilized LOX129. In kind it is binding. As to the method: To enable surface plasmon resonance spectroscopy (SPR), LOX129 was immobilized on a SPR chip by amine coupling and compounds were analyzed for binding. Based on the individual sensorgrams the compounds were classified as non-binders, over-stoichiometric binders or dose-dependent binders. In total four different structural classes could be confirmed as dose-dependent and stoichiometric binders. […] The mean binding ratio is 0.78 (Supplementary Table 3). Assuming a high percentage of active, binding competent protein on the chip surface, this ratio represents less than one BI-0115 molecule per LOX-1 monomer.
Binding studies were performed using a Biacore T200 instrument (GE Healthcare) at 25 °C in 20 mM HEPES pH 6.8, 150 mM NaCl, 0.05% Tween 20, and 1% DMSO at a flow rate of 30 μL/min. The interaction analyses were performed in the multi-cycle kinetic mode using 120 s association time and 600 s dissociation time at the following LOX-1 inhibitor concentrations 0.391, 0.78, 1.56, 3.125, 6.25, 12.5 and 25 µM. Data were analyzed using the Biacore T200 Evaluation Software 2.0. Due to a transient binding, the KD was determined from a plot of steady state response levels against analyte concentration (affinity plot). The mean KD value was determined from four individual experiments (Supplementary Table 3). The binding ratio is the average number of compound molecules bound per LOX-1 protein on the surface.
Background: Surface plasmon resonance follows binding to a sensor surface in real time, without labels.

Data set [4] in a line: High throughput solubility. It is filed as physicochemical. To be noted: for solubility at 24 h: aqueous buffer, kinetic from dmso stock, n = 1. As for the experimental part: The aqueous solubility of the test compound is determined by comparing the amount dissolved in buffer to the amount in an acetonitrile/water (1/1) solution. Starting from a 10 mM DMSO stock solution aliquots are diluted with acetonitrile/water (1/1) or buffer resp. After 24h of shaking, the solutions are filtrated and analyzed by LC-UV. The amount dissolved in buffer is compared to the amount in the acetonitrile solution. Solubility will usually be measured from 0.001 to 0.125 mg/ml at a DMSO concentration of 2.5%. The solubility at the different pH values for BI-0115 were measured with n = 1.

A short description of data set [5]: PAMPA passive permeability. It is filed as in vitro ADME. The text has this:
The PAMPA assay provides data on the passive permeability of test compounds through immobilized artificial phospholipid membranes. The method used was extensively described previously. The number of experiments for BI-0115 is n = 1.
For orientation: The PAMPA barrier holds no transporters, so it reflects passive diffusion.

For data set [6], the target named is T2, hERG channel (Homo sapiens, UniProt Q12809).
T2 construct: expressed in transfected cells; host or cells: HEK293
The experiment in a line: hERG patch-clamp in HEK293 cells. It is filed as cell-based. As for the experimental part:
hERG-mediated membrane currents are recorded in HEK (human embryonic kidney) 293 cells stably transfected with hERG cDNA, using the whole-cell configuration of the patch-clamp technique as previously described. The number of experiments for BI-0115 is n = 1.

Data set [7] relates to panel of GPCRs, drug transporters, ion channels, nuclear receptors, kinases, and other non-kinase enzymes. The experiment in a line: Eurofins CEREP off-target panel. As to conditions: at 10 µM; measured once. As for the experimental part: To assess potential off-target liabilities, BI-0115 was tested on a panel of assays across various key pharmacological target classes (GPCRs, drug transporters, ion channels, nuclear receptors, kinases, and other non-kinase enzymes; Eurofins CEREP, France). […] Although the compound solubility is low, it was sufficient to get a saturable dose response in the cellular assay and the various biophysical assays. Permeability, as measured with the PAMPA assay is good.

T2 sequence (Q12809 whole entry): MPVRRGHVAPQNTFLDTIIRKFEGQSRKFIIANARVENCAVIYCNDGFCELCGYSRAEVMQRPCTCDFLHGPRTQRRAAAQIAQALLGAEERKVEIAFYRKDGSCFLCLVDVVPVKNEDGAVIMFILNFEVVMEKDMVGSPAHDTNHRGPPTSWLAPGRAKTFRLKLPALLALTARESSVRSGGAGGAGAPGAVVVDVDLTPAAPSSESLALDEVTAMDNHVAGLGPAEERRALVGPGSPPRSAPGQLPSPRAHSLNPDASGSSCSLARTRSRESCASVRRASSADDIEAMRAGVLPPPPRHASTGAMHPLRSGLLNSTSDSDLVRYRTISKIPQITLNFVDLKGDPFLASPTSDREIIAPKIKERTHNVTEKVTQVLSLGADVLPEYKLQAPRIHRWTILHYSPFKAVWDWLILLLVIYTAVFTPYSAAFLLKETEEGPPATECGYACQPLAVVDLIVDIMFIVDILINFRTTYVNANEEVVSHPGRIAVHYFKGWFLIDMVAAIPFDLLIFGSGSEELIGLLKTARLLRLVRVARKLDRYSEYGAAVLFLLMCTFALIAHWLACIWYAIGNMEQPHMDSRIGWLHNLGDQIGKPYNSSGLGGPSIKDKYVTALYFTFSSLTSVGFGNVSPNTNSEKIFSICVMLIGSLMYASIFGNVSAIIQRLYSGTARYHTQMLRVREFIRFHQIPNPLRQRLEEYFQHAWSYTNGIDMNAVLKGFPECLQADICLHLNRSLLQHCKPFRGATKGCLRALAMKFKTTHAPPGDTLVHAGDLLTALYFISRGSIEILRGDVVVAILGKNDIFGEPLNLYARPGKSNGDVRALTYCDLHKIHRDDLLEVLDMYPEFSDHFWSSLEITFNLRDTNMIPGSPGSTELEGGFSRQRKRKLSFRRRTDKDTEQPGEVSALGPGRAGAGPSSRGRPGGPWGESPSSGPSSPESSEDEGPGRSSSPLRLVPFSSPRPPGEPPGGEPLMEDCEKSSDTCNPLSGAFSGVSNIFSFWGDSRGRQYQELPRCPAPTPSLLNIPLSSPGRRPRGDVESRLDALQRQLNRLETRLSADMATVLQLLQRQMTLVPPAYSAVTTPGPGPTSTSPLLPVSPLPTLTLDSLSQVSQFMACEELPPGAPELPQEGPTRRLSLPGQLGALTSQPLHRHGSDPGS

The Kd is the free concentration of one partner at which half of the binding sites on the other are occupied at equilibrium, for simple one-to-one binding. One may read the solubility as how much of the substance goes into solution per volume. For orientation: Papp means the rate of passage across a membrane or cell layer, normalised by area and donor concentration. By IC50 is commonly meant the midpoint of a concentration-inhibition curve. For the compound `CCCN1C(=O)c2ccc(Cl)cc2Nc2ncccc21` [BI-0115], the “Quench Assay” value in data set [1] is reported as −9.1%. In addition, in data set [2] (in words), the “ITC thermodynamic driving force” value was “strong entropic contribution”. Further, the Kd in data set [2] (mean of n = 3, 300 µM LOX129 dimer titrated into compound, 25 °C, read-out: ITC Kd) is 7 µM and 6.99 µM; in data set [3] (mean of n = 4, steady-state fit, 25 °C, read-out: SPR Kd) it was 4.32 µM and 4.3 µM; in data set [3] (measurements 1-4, Supplementary Table 3, read-out: SPR KD, individual measurements) it was 3.8 µM and 4.6 µM and 4.12 µM and 4.76 µM. For the same compound, the “ITC N (molar ratio protein:inhibitor)” value in data set [2] (stoichiometry, mean of n = 3) was 1.8 and 1.77 ±0.34. For the same compound, the SPR binding kinetics result in data set [3] (in words) was “fast binding kinetics”. Moreover, the SPR binding ratio in data set [3] (mean of n = 4, compound molecules bound per LOX-1 protein on the surface) came out at 0.78. In data set [3] (measurements 1-4, Supplementary Table 3), the “SPR binding ratio, individual measurements” value was 0.79 and 0.84 and 0.73 and 0.77. The solubility at 24 h is 1 µg/mL (≈ 3.48 µM) in data set [4] (pH 4, aqueous buffer, pH4, read-out: Solubility pH4) and 1 µg/mL (≈ 3.48 µM) in data set [4] (pH 7, aqueous buffer, pH7, read-out: Solubility pH7). Further, in data set [4] (in words), the compound solubility result is listed as “low”. Besides, the Papp in data set [5] (PAMPA, n = 1) turned out to be 1.5 ×10⁻⁶ cm/s. Moreover, in data set [5] (in words), the “Permeability, PAMPA assay” value is on record as “good”. The “inhibition of the hERG channel” value in data set [6] (in words) was “no inhibition”. Moreover, the half-maximal inhibitory concentration (IC50) in data set [6] (whole-cell patch-clamp, n = 1) was more than 10 µM. In addition, the CEREP profile result in data set [7] is on record as “very clean profile; also recorded: clean”.
